Columns and labels:
[1] = target: T1, D(4) dopamine receptor (Homo sapiens) (UniProt P21917); assay: Inhibition of mitogenic [3H]thymidine uptake in CHO 10001 cells expressing Dopamine receptor D4; assay type: functional, cell-based
T1 sequence (whole entry): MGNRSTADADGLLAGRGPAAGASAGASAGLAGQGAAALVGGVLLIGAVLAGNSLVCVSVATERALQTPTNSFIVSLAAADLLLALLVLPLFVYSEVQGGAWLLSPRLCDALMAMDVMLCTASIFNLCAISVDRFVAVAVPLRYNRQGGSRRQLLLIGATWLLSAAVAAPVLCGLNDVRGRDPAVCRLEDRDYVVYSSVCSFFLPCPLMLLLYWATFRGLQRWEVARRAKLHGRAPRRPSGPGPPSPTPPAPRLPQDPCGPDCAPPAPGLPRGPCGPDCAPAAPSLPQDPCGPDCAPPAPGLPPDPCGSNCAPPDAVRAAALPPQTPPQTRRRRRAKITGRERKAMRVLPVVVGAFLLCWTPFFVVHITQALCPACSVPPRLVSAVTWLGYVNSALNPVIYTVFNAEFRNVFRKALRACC

D(3) dopamine receptor = D(3) dopamine receptor (Homo sapiens, UniProt P35462); assay: biochemical
Description: Ability to displace [3H]spiperone from human cloned Dopamine receptor D3 expressed in CHO K-1 cells in vitro.

D(4) dopamine receptor = target: T2, D(4) dopamine receptor (Homo sapiens, UniProt P21917); assay: biochemical
T2 sequence (P21917 whole entry): T1 sequence (whole entry)
Description: Ability to displace [3H]spiperone from cloned human Dopamine receptor D4 expressed in CHO K-1 cells in vitro

[2] = target: T3, 5-hydroxytryptamine receptor 1A (Rattus norvegicus, UniProt P19327); assay: Binding affinity against rat brain 5-hydroxytryptamine 1A receptor
T3 sequence (P19327 whole entry): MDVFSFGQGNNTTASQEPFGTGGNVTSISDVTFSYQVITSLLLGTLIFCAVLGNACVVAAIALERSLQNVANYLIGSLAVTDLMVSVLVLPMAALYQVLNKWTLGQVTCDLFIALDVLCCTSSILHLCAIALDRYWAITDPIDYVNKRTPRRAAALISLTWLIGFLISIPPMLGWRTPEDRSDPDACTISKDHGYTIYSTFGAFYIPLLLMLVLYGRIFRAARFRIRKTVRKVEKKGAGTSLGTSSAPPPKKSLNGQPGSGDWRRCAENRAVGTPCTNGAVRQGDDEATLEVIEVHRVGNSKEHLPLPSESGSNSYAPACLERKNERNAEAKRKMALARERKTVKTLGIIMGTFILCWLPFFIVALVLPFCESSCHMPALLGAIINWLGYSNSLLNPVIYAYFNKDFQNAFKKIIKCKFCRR

[3] = target: 5-hydroxytryptamine receptor 2A (Rattus norvegicus, UniProt P14842); assay: Binding affinity against rat brain 5-hydroxytryptamine 2A receptor
[4] = target: T4, Adrenergic receptor alpha-2 (Rattus norvegicus, UniProt P22086+P19328+P22909); assay: Binding affinity against rat brain Alpha-2 adrenergic receptor
T4 sequence (P22086 whole entry): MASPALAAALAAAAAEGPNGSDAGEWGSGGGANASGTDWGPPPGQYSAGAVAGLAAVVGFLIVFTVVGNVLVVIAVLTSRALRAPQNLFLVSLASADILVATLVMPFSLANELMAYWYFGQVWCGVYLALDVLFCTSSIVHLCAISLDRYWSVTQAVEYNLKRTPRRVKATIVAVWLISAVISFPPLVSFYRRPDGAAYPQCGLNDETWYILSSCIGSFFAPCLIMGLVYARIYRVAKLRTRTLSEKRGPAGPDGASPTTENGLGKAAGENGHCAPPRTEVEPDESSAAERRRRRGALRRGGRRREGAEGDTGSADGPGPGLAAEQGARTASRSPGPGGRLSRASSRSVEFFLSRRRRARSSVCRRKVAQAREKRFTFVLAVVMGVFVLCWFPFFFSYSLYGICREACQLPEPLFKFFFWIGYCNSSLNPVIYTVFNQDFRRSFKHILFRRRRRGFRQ
T4 sequence (P19328 whole entry): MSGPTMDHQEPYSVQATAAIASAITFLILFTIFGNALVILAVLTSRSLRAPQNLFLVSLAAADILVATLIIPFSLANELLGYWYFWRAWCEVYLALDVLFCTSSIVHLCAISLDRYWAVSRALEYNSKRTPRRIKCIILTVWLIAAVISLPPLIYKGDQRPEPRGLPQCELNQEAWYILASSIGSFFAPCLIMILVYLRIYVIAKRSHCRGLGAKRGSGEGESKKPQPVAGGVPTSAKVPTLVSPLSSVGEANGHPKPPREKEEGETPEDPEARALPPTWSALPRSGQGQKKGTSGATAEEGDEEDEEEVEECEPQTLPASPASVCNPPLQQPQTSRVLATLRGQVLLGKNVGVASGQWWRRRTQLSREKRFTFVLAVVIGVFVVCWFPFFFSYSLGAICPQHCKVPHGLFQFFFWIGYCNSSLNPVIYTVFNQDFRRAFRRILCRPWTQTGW
T4 sequence (P22909 whole entry): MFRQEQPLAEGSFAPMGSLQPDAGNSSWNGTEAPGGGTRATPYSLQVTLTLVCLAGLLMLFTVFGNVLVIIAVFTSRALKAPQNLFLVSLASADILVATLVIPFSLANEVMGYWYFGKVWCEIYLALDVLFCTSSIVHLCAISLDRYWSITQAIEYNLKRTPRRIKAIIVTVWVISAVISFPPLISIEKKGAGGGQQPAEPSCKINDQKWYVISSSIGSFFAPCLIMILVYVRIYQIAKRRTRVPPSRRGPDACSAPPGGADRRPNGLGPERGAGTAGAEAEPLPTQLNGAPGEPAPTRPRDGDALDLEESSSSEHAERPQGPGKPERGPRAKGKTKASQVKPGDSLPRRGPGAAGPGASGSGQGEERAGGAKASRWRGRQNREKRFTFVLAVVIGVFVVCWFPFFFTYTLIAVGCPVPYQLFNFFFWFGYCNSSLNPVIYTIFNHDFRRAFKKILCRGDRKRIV

[5] = target: T5, Adrenergic receptor alpha-1 (Rattus norvegicus, UniProt P15823+P23944+P43140); assay: Binding affinity against rat brain Alpha-1 adrenergic receptor
T5 sequence (P15823 whole entry): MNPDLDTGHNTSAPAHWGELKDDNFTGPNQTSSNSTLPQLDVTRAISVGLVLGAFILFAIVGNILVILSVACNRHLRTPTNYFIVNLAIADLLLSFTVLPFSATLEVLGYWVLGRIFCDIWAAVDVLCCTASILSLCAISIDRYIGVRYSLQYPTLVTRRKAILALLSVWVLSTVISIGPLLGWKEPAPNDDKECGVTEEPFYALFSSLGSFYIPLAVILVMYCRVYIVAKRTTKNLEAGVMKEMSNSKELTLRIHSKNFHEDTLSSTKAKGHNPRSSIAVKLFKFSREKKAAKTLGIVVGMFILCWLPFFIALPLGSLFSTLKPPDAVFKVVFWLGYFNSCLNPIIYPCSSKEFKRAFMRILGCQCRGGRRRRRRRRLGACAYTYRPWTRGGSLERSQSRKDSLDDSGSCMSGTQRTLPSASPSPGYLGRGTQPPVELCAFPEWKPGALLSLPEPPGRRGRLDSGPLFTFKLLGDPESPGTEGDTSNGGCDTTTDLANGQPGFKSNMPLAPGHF
T5 sequence (P23944 whole entry): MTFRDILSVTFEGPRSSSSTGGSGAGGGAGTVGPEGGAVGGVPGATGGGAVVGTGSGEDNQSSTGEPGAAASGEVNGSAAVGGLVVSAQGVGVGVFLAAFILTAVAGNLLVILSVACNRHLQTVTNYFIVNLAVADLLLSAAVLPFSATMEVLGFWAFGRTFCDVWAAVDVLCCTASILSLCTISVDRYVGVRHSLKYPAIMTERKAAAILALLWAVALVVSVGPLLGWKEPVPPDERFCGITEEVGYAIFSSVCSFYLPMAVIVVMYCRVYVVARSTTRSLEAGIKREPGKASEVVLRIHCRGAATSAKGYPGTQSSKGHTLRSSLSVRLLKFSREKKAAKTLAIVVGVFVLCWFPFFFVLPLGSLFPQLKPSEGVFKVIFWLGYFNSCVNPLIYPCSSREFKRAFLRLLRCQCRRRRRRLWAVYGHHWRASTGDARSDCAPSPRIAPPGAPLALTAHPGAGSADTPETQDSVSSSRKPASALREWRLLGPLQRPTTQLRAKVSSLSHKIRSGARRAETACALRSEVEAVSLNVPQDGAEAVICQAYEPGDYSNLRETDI
T5 sequence (P43140 whole entry): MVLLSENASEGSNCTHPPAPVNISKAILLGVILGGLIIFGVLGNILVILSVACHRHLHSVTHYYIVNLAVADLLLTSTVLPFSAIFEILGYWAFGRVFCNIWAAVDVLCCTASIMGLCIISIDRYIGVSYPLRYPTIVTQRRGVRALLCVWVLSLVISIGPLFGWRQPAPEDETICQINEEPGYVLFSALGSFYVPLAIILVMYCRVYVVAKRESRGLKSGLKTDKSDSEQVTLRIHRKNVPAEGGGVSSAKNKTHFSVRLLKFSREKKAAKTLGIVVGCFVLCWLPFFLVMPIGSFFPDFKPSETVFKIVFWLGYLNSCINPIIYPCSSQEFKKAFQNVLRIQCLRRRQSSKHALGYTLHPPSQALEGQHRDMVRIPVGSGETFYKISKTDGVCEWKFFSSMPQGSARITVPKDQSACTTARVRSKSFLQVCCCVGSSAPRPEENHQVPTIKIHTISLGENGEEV

D(3) dopamine receptor, sequence (P35462 whole entry): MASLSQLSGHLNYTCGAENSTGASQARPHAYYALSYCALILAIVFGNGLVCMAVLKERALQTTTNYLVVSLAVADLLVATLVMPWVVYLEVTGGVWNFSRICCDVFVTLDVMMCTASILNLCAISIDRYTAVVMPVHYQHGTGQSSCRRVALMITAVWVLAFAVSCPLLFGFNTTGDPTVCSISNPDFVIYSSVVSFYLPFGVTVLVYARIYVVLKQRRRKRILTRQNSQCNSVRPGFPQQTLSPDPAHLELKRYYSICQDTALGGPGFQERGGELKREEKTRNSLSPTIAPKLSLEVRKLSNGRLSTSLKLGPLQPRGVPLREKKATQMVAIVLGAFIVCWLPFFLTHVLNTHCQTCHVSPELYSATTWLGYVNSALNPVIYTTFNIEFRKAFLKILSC
5-hydroxytryptamine receptor 2A, sequence (P14842 whole entry): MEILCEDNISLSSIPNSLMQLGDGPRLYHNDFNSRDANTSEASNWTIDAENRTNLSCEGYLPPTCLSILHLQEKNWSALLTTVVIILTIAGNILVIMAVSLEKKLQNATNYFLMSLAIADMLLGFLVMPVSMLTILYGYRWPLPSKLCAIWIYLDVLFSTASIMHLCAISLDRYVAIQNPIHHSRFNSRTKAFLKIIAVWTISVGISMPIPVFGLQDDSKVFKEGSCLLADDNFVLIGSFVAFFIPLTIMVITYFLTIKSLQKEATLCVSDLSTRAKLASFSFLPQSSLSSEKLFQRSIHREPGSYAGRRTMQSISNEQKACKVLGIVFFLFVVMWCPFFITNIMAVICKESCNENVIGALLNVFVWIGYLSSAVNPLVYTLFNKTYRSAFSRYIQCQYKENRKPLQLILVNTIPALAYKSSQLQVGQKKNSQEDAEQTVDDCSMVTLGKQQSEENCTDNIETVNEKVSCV

| SMILES | Intrinsic activity [1] [%] | Ki (D(3) dopamine receptor) [nM] | Ki (D(4) dopamine receptor) [nM] | other results |
| --- | --- | --- | --- | --- |
| COc1cc2oc(=O)c3c(c2cc1OC)CCN(Cc1ccc(Cl)cc1)C3 | 21.2 | > 3000 | – | – |
| COc1ccc2c3c(c(=O)oc2c1OC)CN(Cc1ccccc1)CC3 | – | 1300 | 16 | – |
| O=c1oc2cc(O)ccc2c2c1CN(Cc1ccc(Cl)cc1)CC2 | 23.2 | 317 | 2.4 | – |
| Cc1cc(O)c2c3c(c(=O)oc2c1)CN(Cc1ccccc1)CC3 | – | – | 145 | – |
| COc1ccc2c3c(c(=O)oc2c1)CN(Cc1ccccc1)CC3 | 23.2 | – | – | – |
| COc1ccc2c3c(c(=O)oc2c1)CCN(Cc1ccccc1)C3 | – | – | > 3300 | – |
| COc1ccc2c3c(c(=O)oc2c1)CN(CCc1ccccc1)CC3 | – | – | 7.9 | – |
| Cc1ccc2c3c(c(=O)oc2c1)CN(Cc1ccccc1)CC3 | 12.4 | – | – | Ki [2]: > 700 nM; Ki [3]: > 700 nM; Ki [4]: > 700 nM; Ki [5]: > 700 nM |
| COc1ccc2c3c(c(=O)oc2c1)CN(c1ccccc1)CC3 | – | – | > 3300 | – |
| COc1ccc2c3c(c(=O)oc2c1)CN(C(=O)c1ccccc1)CC3 | – | – | 420 | – |

Further lines, with some results ahead:

| Intrinsic activity [1] [%] | Ki (D(3) dopamine receptor) [nM] | Ki (D(4) dopamine receptor) [nM] | SMILES | other results |
| --- | --- | --- | --- | --- |
| 30.7 | – | 17 | COc1ccc2c3c(c(=O)oc2c1)CN(Cc1cccc(Cl)c1)CC3 | – |
| 26.8 | 2780 | 8.7 | COc1ccc2c3c(c(=O)oc2c1)CN(Cc1ccc(Cl)cc1)CC3 | – |
| 0 | 2210 | 7.5 | Cc1ccc2c3c(c(=O)oc2c1)CN(Cc1ccc(F)cc1)CC3 | – |
| 35.2 | 548 | 4.3 | COc1ccc2c3c(c(=O)oc2c1)CN(Cc1ccc(F)cc1)CC3 | – |
| – | – | 11 | Cc1ccc2c3c(c(=O)oc2c1)CN(Cc1ccc(Cl)cc1)CC3 | – |
| 0 | – | – | COc1ccc2c3c(c(=O)oc2c1)CN(Cc1ccc(C(F)(F)F)cc1)CC3 | – |
| 25.2 | > 3000 | – | COc1ccc2c3c(c(=O)oc2c1)CN(Cc1ccc([N+](=O)[O-])cc1)CC3 | – |
| 10 | – | – | COc1ccc2c3c(c(=O)oc2c1)CN(Cc1ccc(C)cc1)CC3 | – |

Source: ChEMBL document CHEMBL1130121, “Chromeno[3,4-c]pyridin-5-ones: selective human dopamine D4 receptor antagonists as potential antipsychotic agents” (J Med Chem, 1997)
